Laboratory results reported in US4080467A, “Pharmaceutical compositions comprising 1,3-dithiolan-2-ylidene malonate derivatives” (Nihon Nohyaku Co., Ltd., priority 1976, dated 1978).

Key:
[1] = tested on: Acute Liver Damage associated with Centrilobular Necrosis (carbon tetrachloride); assay: Protective effect on acute liver damage associated with centrilobular necrosis (carbon tetrachloride model); assay type: in vivo, mice (four-week-old male, dd strain); details: 250 mg/kg oral 6 h before CCl4, average of 5 to 6 mice
Text: Carbon tetrachloride (CCl4) administration induces centrilobular necrosis of the liver associated with loss of diphosphopyridine nucleotide, hepatic glycogen, coenzyme A and increase in neutral fat. Release of several enzymes from the hepatocytes, and increases of enzyme activities in the plasma are recognized as the result of the damage of the liver. A suitable means for evaluating the degree of damage induced by CCl4 or the degree of protection afforded by drugs is to study the plasma glutamic-pyruvic transaminase (p-GPT) activity.
Method: The test compounds were dissolved or suspended in olive oil and administered orally at the dose of 250 mg/kg to the mice (Four-week-old male mice-dd strain). After 6 hours, CCl4 was administered orally (0.05 ml/kg as olive oil solution). Animals were killed 24 hours after CCl4 administration, and the liver was grossly observed. The plasma was obtained by centrifugation. Activities of p-GPT were determined by the method of Reitman and Frankel and expressed in Karmen units.
Score for liver damage was as follows: […]
4 Clearly observable damage
Each figure indicates average of 5 to 6 mice. Values of p-GPT over 1,000 Karmen unit regarded as 1,000 for calculation of average for convenience.

[2] = tested on: Chronic Liver Damage (thioacetamide); assay: Therapeutic effect on chronic liver damage (thioacetamide model), BSP test; assay type: in vivo, rats (Sprague Dawley strain); details: 12 times TAA 100 mg/kg, then diet + 0.2% compound
Experimental: In the tests of this Example, TAA was repeatedly administered to animals to prepare test animals suffering from somewhat chronic liver damages, and then the present compounds were administered thereto to know whether or not the compounds were effective against chronic hepatitis.
The degree of the liver damage and the therapeutic effects of the compounds were evaluated according to BSP test. The BSP test is a method in which BSP (sulfobromophthalein sodium), a dye known to be quickly metabolized in and excreted from the liver, is intravenously injected into animals and, after a definite period of time, the blood is taken out to measure the amount of BSP remaining in the plasma. In case the animals are suffering from the liver damage, the dye will remain, according to the degree of the damage, at the stage where a major portion of BSP is metabolized and excreted in the case of normal animals.
Five groups of rats (Sprague Dawley strain) were treated as follows:
Group A: The rats were orally administered with 100 mg/kg of thioacetamide,at 3 days intervals for 36 days (12 times of the administration), then were submitted for 10 days to a normal diet.
Group B: The rats were orally administered with 100 mg/kg of thioacetamide at 3 days intervals for 36 days (12 times of the administration), then were submitted for 10 days to the normal diet + 0.2% of compound 4.
Group C: The rats were orally administered with 100 mg/kg of thioacetamide at 3 days intervals for 36 days (12 times of the administration) then were submitted for 10 days to the normal diet + 0.2% of compound 2.
Group D: The rats were orally administered with 100 mg/kg of thioacetamide at 3 days intervals for 36 days (12 times of the administration) then were submitted for 10 days to the normal diet + 0.2% of anethol trithion.
Group E: The rats were submitted to the normal diet as the control.
Five rats were sacrified from each group at appropriate intervals for BSP (sulfobromophthalein) test, the results of which were shown as amounts (mg) of BSP remaining in 1 dl of plasma.

[3] = tested on: acute liver damage associated with periportal necrosis (allyl alcohol); assay: Protective effect on acute liver damage associated with periportal necrosis (allyl alcohol model), BSP test; assay type: in vivo, male mouse (4 week-old dd-strain); details: 100 mg/kg oral 6 h before allyl alcohol 0.075 ml/kg; 24 h after
Experimental: The compound of this invention or anethol trithion was orally administered to the male mouse (4 week-old dd-strain) at the dose of 100 mg/kg. Six hours after it, allyl alcohol was orally administered at the dose of 0.075 ml/kg. Twenty four hours after it, the animals were sacrificed to collect blood samples. The residual quantity of BSP was measured by BSP test, from which the protective effect of the compound of this invention was evaluated.

[4] = tested on: acute liver damage associated with discrete lobular necrosis (D-galactosamine); assay: Protective effect on acute hepatitis with mesenchymal reaction and discrete lobular necrosis (D-galactosamine model); assay type: in vivo, male rat (SD strain); details: 100 mg/kg oral 6 h before D-galactosamine
Experimental: D-Galactosamine is a compound which induces a discrete lobular necrosis associated with mesenchymal reaction similar to the change observed in human viral hepatitis, so that it is frequently used in producing a model for viral hepatitis.
The compound of this invention or anethol trithion was administered orally to the male rat (SD strain) at the dose of 100 mg/kg. Six hours after it, D-galacetosamine was intraperitoneally administered at the dose of 600 mg/kg. Four hours after it, an additional 300 mg/kg was administered intraperitoneally. Eight hours after it, the animals were sacrificed to collect the blood samples. P-GPT activity and triglyceride in the liver were measured to evaluate the effect of the compound of this invention.

[5] = tested on: bile flow and biliary salt; assay: Cholagogic action: bile flow and excretion of biliary salt; assay type: in vivo, male rat (4 week-aged, SD-JCL strain); details: 200 mg/kg oral; for bile flow / excretion of biliary salt: before treatment = 100
Experimental: The male rat (4 week-aged, SD-JCL strain) was anesthetized with sodium pentobarbital (37.5 mg/kg, intraperitoneal injection). The abdominal cavity was opened through a midline incision. The common bile duct was catheterized with polyethylene tube o.d. 0.8 mm. The catheter was brought to the outside through the abdominal incision wound prior to closing. Bile was collected from the catheter continuously with time intervals of one hour. The quantity of bile produced in one hour was determined by weighing and that of biliary salt was determined by enzymatic method (Ikagaku Jikkenho Koza 1B, Biological Constituents II, edited by Tamio YAMAKAWA). The amount of biliary salts was represented as cholic acid equivalent.
In the representation of the results, the quantities of bile and biliary salts produced in one hour prior to the administration of drug were taken as 100. The compound of this invention was orally administered at the dose of 200 mg/kg. As reference anethol trithion was used.

COc1ccc(-c2cc(=S)ss2)cc1 [Anethol trithion, anethol trithion, reference compound]
p-GPT (plasma glutamic-pyruvic transaminase activity) ([1]; 24 h after CCl4, values over 1,000 regarded as 1,000): 38 Karmen units | Liver Damage Index ([1]; 0 normal, 2 slightly recognized, 4 clearly observable damage, 6 heavy damage): 1.6 | Concentration of BSP in plasma ([2]; 2 Days): 9.7 ± 4.1 mg/dL | Concentration of BSP in plasma ([2]; 5 Days): 7.3 ± 3.4 mg/dL | Concentration of BSP in plasma ([2]; 10 Days): 0.9 ± 0.1 mg/dL | Index of hepatotoxicity: BSP (residual quantity of BSP) [3]: 19.3±4.6 | Triglyceride in liver [4]: 9.2 ± 1.5 mg/g | p-GPT [4]: 106±30 Karmen unit | bile flow ([5]; 1 hour after treatment): 114±15 | excretion of biliary salt ([5]; 1 hour after treatment): 108±12 | bile flow ([5]; 2 hours after treatment): 114±15 | excretion of biliary salt ([5]; 2 hours after treatment): 89±11 | bile flow ([5]; 3 hours after treatment): 102±11 | excretion of biliary salt ([5]; 3 hours after treatment): 66±3.8 | bile flow ([5]; 4 hours after treatment): 95±7.7 | excretion of biliary salt ([5]; 4 hours after treatment): 47±3.0 | bile flow ([5]; 5 hours after treatment): 86±6.6 | excretion of biliary salt ([5]; 5 hours after treatment): 3.3±4.0 | Quantity of total excreted bile for 5 hours relative to control ([5]; versus control): 1.10 times
